The first experiment deals with AMPK. Description: AMPK activation (pT172-AMPK immunoassay) in C2C12 myocytes. Format: cell-based, mouse. The conditions noted are these: 1 mM AICAR, 30 min, average over ten independent assays, 95% CI=1.26-2.21. The method, then: The Model—The C2C12 myocyte model is commonly used to study the potential effects of compounds on muscle tissue in vitro.
Cell culture—Mouse C2C12 myoblasts were obtained from American Type Culture Collection (Manassas, Va.), and were maintained in Dulbecco's modified Eagle's medium (DMEM) supplemented with 10% fetal bovine serum at 37° C. under a humidified atmosphere of 5% CO2.
C2C12 cells were seeded at an initial density of 6×10^4 cells/cm^2 in 24-well plates. For two days, the cells were allowed grow to reach confluence. Following confluence, the cells were forced to differentiate into myocytes by culturing in DMEM supplemented with 2% horse serum for seven days.
Treatment with AICAR—On Day 8 to 10 post differentiation, C2C12 myocytes were incubated in serum-free DMEM plus 0.5% BSA (bovine serum albumin) for three hours. Next, AICAR (Cell Signal, Danvers, Mass.) was dissolved in phosphate buffered saline (PBS) and added to the culture medium to achieve concentrations of 1 mM per column (4 replicates) for 30 min at 37° C.
Measuring activated AMPKα—pT^172-AMPK was quantified using the Biosource AMPKa Immunoassay Kit (Camarillo, Calif.) without modification. Protein content of the cell lysates was determined with the Active Motif fluorescent protein assay reagent (Carlsbad Calif., Hoefelschweiger, B. K., Duerkop, A., and Wolfbeis, O, S, Novel type of general protein assay using a chromogenic and fluorogenic amine-reactive probe. Anal Biochem 2005, 344, 122-9). A Packard Fluorocount spectrofluorometer (Model#BF10000, Meridan, Conn.) was used for protein determination and a MEL312e BIO-KINETICS READER (Bio-Tek Instruments, Winooski, Vt.) was used for quantification of pT^172-AMPK.
Calculation of relative activation of AMPK —pT^172-AMPK was computed per mg lysate protein and then normalized to the dimethyl sulfoxide (DMSO) negative controls. For statistical comparisons, 95% confidence intervals were computed (Excel, Microsoft, Redman, Wash.).
The Model—The C2C12 murine myocyte model as described in Example 1 was used.
Chemicals, Cell Culture and Treatment—Chemicals, cell culture procedures, methods and statistical procedures used were as noted in Example 1.
Test Materials—Phytochemicals or botanical extracts as described in Table 1 were used as the test materials and dosed at 25 μglmL. The concentration for the positive control AICAR run concurrently was 1.0 mM (338 μg/mL).
The Model—The C2C12 murine myocyte model as described in Example 1 was used in this example.
Test Materials—Botanical extracts Ginger Extract (Suan Farma, Hackensack, N.J.), Ginger Root Powder (BI Nutraceuticals, Long Beach, Calif.), and Ginger Powdered Extract 6:1, Zingiber officinale (Draco, San Jose, Calif.) were used as the test materials and dosed at 25 μg/mL. The concentration for the positive control AICAR was 1.0 mM (338 μg/mL).
As to `NC(=O)c1ncn([C@@H]2O[C@H](CO)[C@@H](O)[C@H]2O)c1N` [AICAR, 5-Aminoimidazole-4-carboxamide ribonucleoside, reference compound], the “increase of pT172-AMPK relative to the DMSO negative controls” value came to 1.67 fold.

Still in this experiment, the particulars now being: test material 25 μg/mL, pT172-AMPK per mg lysate protein normalized to DMSO negative controls.
`CCCCC[C@H](O)CC(=O)CCc1ccc(O)c(OC)c1` [6-Gingerol]: the pAMPK/AMPK. is 3.52.
Compound `COc1ccc2cc3[n+](cc2c1OC)CCc1cc2c(cc1-3)OCO2` [Berberine] returned a pAMPK/AMPK. of 1.26.
In the case of `COc1cc(O)c(CC=C(C)C)c(O)c1C(=O)/C=C/c1ccc(O)cc1` [Xanthohumol], the pAMPK/AMPK. turned out to be 1.55.
`CC(C)C[C@H](N)C(=O)O` [L-Leucine] returned a pAMPK/AMPK. of 1.29.
Same read-out and setting: in the case of Chromium polynicotinate it was 1.59; in that of `Oc1ccc(C=Cc2cc(O)cc(O)c2)cc1` [Resveratrol], 1.25.
`CC(C)=CCC1=C(O)C(C(=O)CC(C)C)=C(O)C(CC=C(C)C)(CC=C(C)C)C1=O` [Lupulone]: the pAMPK/AMPK. is recorded as 1.63.
Consider `CNCC(O)c1ccc(O)cc1` (stereo not drawn) [Synephrine], for which the pAMPK/AMPK. amounted to 2.64.

The values above are taken from US20100112099A1, “PHYTOCHEMICAL COMPOSITIONS AND METHODS FOR ACTIVATING AMP-KINASE” (METAPROTEOMICS, LLC, priority 2008, published 2010).
